Laboratory results: ChEMBL document CHEMBL4840311, “Discovery of novel nitrogenous heterocyclic-containing quinoxaline-1,4-di-N-oxides as potent activator of autophagy in M.tb-infected macrophages” (Eur J Med Chem, 2021)
In brackets after ≈: the same amount, converted by molar mass. Activity calls are given as the source filed them. The rule behind the calls is not given here.

Legend:
[1] = system: Mycobacterium tuberculosis; assay: Antimycobacterial activity against Mycobacterium tuberculosis H37Rv ATCC 27294 assessed as inhibition of bacterial growth measured after 5 days by microplate alamar blue assay; assay type: functional; settings: H37Rv ATCC 27294, 120 h, time 5 day
J774.A1 [2] = assay: Cytotoxicity against mouse J774.A1 cells assessed as reduction in cell viability measured after 72 hrs by MTT assay; assay type: cell-based; settings: J774.A1, 72 h
[3] = Selectivity index, ratio of IC50 for African green monkey Vero cells measured after 72 hrs by MTT assay to MIC for antimycobacterial activity against Mycobacterium tuberculosis H37Rv ATCC 27294 assessed as inhibition of bacterial growth measured after 5 days by microplate alamar blue assay; assay type: toxicity; settings: read-out: Selectivity Index
Vero = assay: Cytotoxicity against African green monkey Vero cells assessed as reduction in cell viability measured after 72 hrs by MTT assay; assay type: cell-based; settings: Chlorocebus sabaeus
[4] = MRT (0 to t) in Wistar rat at 2.5 mg/kg, im measured for 48 hrs by HPLC method; assay type: ADME, organism-based; settings: in vivo
[5] = Tmax in Wistar rat at 2.5 mg/kg, im measured for 48 hrs by HPLC method; assay type: ADME, organism-based; settings: in vivo
[6] = Cmax in Wistar rat at 2.5 mg/kg, im measured for 48 hrs by HPLC method; assay type: ADME, organism-based; parameters: route intramuscular, dose 2.5 mg/kg, time 48 hrs; settings: in vivo
J774.A1 [7] = assay: Induction of mitochondrial ROS generation in mouse J774.A1 cells infected with Mycobacterium tuberculosis H37Rv at 2.5 ug/ml measured after 24 hrs by Mito-SOX staining based flow cytometry assay; assay type: functional, cell-based; settings: dose 2.5 µg/ml
J774.A1 [8] = assay: Induction of cytoplasmic ROS generation in mouse J774.A1 cells at 2.5 ug/ml measured after 24 hrs by DCFH-DA staining based flow cytometry assay; assay type: functional, cell-based; settings: dose 2.5 µg/ml
J774.A1 [9] = assay: Activation of autophagy in mouse J774.A1 cells infected with Mycobacterium tuberculosis H37Rv assessed as increase of LC3-II expression by measuring ratio of LC3-II to LC3-I at 2.5 ug/ml measured after 24 hrs by Western blot assay (reference value: 1.18); assay type: functional; settings: dose 2.5 µg/ml
Cell membrane [10] = assay: Disruption of membrane integrity Mycobacterium tuberculosis H37Rv assessed as disturbance in energy homeostasis by measuring reduction in ATP content at 0.125 to 2.5 ug/ml measured after 24 hrs by luciferase based bioluminescence assay; settings: dose 0.125-2.5 µg/ml
J774.A1 [11] = assay: Activation of autophagy in mouse J774.A1 cells infected with Mycobacterium tuberculosis H37Rv assessed as increase in LC3 accumulation at 2.5 to 5 ug/ml measured after 24 hrs by immunofluorescence staining analysis; assay type: functional, cell-based; settings: dose 2.5-5 µg/ml
J774.A1 [12] = assay: Activation of autophagy in mouse J774.A1 cells infected with Mycobacterium tuberculosis H37Rv assessed as increase of LC3-II expression by measuring ratio of LC3-II to LC3-I at 1 ug/ml measured after 24 hrs by Western blot assay (reference value: 1.18); assay type: functional; settings: dose 1 µg/ml
[13] = MRT (0 to infinity) in Wistar rat at 2.5 mg/kg, im by HPLC method; assay type: ADME, organism-based; settings: in vivo
[14] = Half life in Wistar rat at 2.5 mg/kg, im measured for 48 hrs by HPLC method; assay type: ADME, organism-based; settings: in vivo
[15] = system: Mycobacterium tuberculosis; assay: Antimycobacterial activity against Mycobacterium tuberculosis H37Rv infected in mouse J774.A1 cells assessed as log reduction of bacterial growth at 40X MIC measured after 4 days by visual colony counting analysis; assay type: functional; settings: time 4 day
[16] = system: Mycobacterium tuberculosis; assay: Antimycobacterial activity against Mycobacterium tuberculosis H37Rv infected in mouse J774.A1 cells assessed as log reduction of bacterial growth at 1X to 40X MIC measured after 1 day by visual colony counting analysis; assay type: functional
[17] = AUC (0 to t) in Wistar rat at 2.5 mg/kg, im measured for 48 hrs by HPLC method; assay type: ADME, organism-based; parameters: dose 2.5 mg/kg, time 48 hrs; settings: in vivo
[18] = system: Mycobacterium tuberculosis; assay: Antimycobacterial activity against Mycobacterium tuberculosis H37Rv infected in mouse J774.A1 cells assessed as log reduction of bacterial growth at 20X MIC measured after 4 days by visual colony counting analysis; assay type: functional; settings: time 4 day
J774.A1 [19] = assay: Activation of autophagy in mouse J774.A1 cells assessed as LC3 accumulation measured after 24 hrs by immunofluorescence staining analysis; assay type: functional, cell-based
J774.A1 [20] = assay: Activation of autophagy in mouse J774.A1 cells infected with Mycobacterium tuberculosis H37Rv assessed as increase of LC3-II expression by measuring ratio of LC3-II to LC3-I at 5 ug/ml measured after 24 hrs by Western blot assay (reference value: 1.18); assay type: functional; settings: dose 5 µg/ml
J774.A1 [21] = assay: Induction of mitochondrial ROS generation in mouse J774.A1 cells at 2.5 ug/ml measured after 24 hrs by DCFH-DA staining based flow cytometry assay; assay type: functional, cell-based; settings: dose 2.5 µg/ml
J774.A1 [22] = assay: Induction of cytoplasmic ROS generation in mouse J774.A1 cells infected with Mycobacterium tuberculosis H37Rv at 2.5 ug/ml measured after 24 hrs by DCFH-DA staining based flow cytometry assay; assay type: functional, cell-based; settings: dose 2.5 µg/ml
[23] = Toxicity in Wistar rat assessed as abnormal behaviour at 2.5 mg/kg, im measured for 48 hrs; assay type: organism-based; settings: in vivo
[24] = system: Mycobacterium tuberculosis; assay: Antimycobacterial activity against Mycobacterium tuberculosis H37Rv infected in mouse J774.A1 cells assessed as log reduction of bacterial growth at 1X MIC measured after 4 days by visual colony counting analysis; assay type: functional; settings: time 4 day
[25] = system: Mycobacterium tuberculosis; assay: Antimycobacterial activity against Mycobacterium tuberculosis H37Rv infected in mouse J774.A1 cells assessed as log reduction of bacterial growth at 10X MIC measured after 4 days by visual colony counting analysis; assay type: functional; settings: time 4 day
J774.A1 [26] = assay: Activation of autophagy in mouse J774.A1 cells assessed as LC3-II expression by measuring ratio of LC3-II to LC3-I measured after 24 hrs by Western blot assay (reference value: 1.04); assay type: functional
[27] = AUC (0 to infinity) in Wistar rat at 2.5 mg/kg, im by HPLC method; assay type: ADME, organism-based; parameters: time infinity, route intramuscular, dose 2.5 mg/kg; settings: in vivo
Cell membrane [28] = assay: Disruption on membrane integrity in Mycobacterium tuberculosis assessed as red fluorescence at 2X to 4X MIC measured after 24 hrs by SYTO 9/PI staining based inverted flourescence microscopy method
[29] = system: Mycobacterium tuberculosis; assay: Antimycobacterial activity against Mycobacterium tuberculosis H37Rv infected in mouse J774.A1 cells assessed as log reduction of bacterial growth at 10X MIC measured after 1 days by visual colony counting analysis; assay type: functional; settings: time 1 day
[30] = system: Mycobacterium tuberculosis; assay: Antimycobacterial activity against Mycobacterium tuberculosis H37Rv infected in mouse J774.A1 cells assessed as log reduction of bacterial growth at 1X to 40X MIC measured after 4 days by visual colony counting analysis; assay type: functional; settings: time 4 day
[31] = system: Mycobacterium tuberculosis; assay: Antimycobacterial activity against Mycobacterium tuberculosis H37Rv infected in mouse J774.A1 cells assessed as log reduction of bacterial growth at 1X MIC measured after 1 days by visual colony counting analysis; assay type: functional; settings: time 1 day

`CO[C@H]1/C=C/O[C@@]2(C)Oc3c(C)c(O)c4c(O)c(c(/C=N/N5CCN(C)CC5)c(O)c4c3C2=O)NC(=O)/C(C)=C\C=C\[C@H](C)[C@H](O)[C@@H](C)[C@@H](O)[C@@H](C)[C@H](OC(C)=O)[C@@H]1C` [RIFAMPIN] showed an MIC [1] of 0.0625 µg/mL (≈ 0.0759 µM).
In the case of `CCCC(=O)c1c(C)[n+]([O-])c2cc(F)c(F)cc2[n+]1[O-]`, the MIC [1] is reported as 8 µg/mL (≈ 28.3 µM).
Compound `CCOC(=O)c1c(C)[n+]([O-])c2cc(-n3ccnc3)c(F)cc2[n+]1[O-]` has an MIC [1] of 0.25 µg/mL (≈ 0.752 µM), an IC50 (J774.A1 [2]) of 77.7 µM and a selectivity ratio at 72 hrs [3] of 172. It also gave an IC50 (Vero) of 129 µM.
In the case of `Cc1c(C(=O)OC(C)C)[n+]([O-])c2cc(F)c(F)cc2[n+]1[O-]`, the MIC [1] is reported as 16 µg/mL (≈ 53.6 µM).
`CC(=O)c1c(C)[n+]([O-])c2cc(N3CCNC(C)C3)c(F)cc2[n+]1[O-]` (stereo not drawn) gave an MIC [1] of 16 µg/mL (≈ 47.9 µM).
`CC(=O)c1c(C(F)(F)F)[n+]([O-])c2cc(-n3ccnc3)c(F)cc2[n+]1[O-]` showed an MIC [1] of 0.25 µg/mL (≈ 0.702 µM), a selectivity ratio at 72 hrs [3] of 66.2 and an IC50 (Vero) of 46.5 µM.
Compound `CCOC(=O)c1c(C)[n+]([O-])c2cc(N3CCNCC3)c(F)cc2[n+]1[O-]` has an MIC [1] of 4 µg/mL (≈ 11.4 µM).
`Cc1c(C(=O)OC(C)C)[n+]([O-])c2cc(-n3ccnc3)c(-n3ccnc3)cc2[n+]1[O-]` showed an MIC [1] of 8 µg/mL (≈ 20.3 µM).
`Cc1c(C(=O)CC(C)C)[n+]([O-])c2ccccc2[n+]1[O-]` showed an MIC [1] of 64 µg/mL (≈ 246 µM).
For `CCOC(=O)c1c(C)[n+]([O-])c2cc(N3CCNC(C)C3)c(F)cc2[n+]1[O-]` (stereo not drawn), the MIC [1] was 8 µg/mL (≈ 22 µM).
`Cc1c(C(=O)CC(C)C)[n+]([O-])c2cc(F)c(N3CCNCC3)cc2[n+]1[O-]` gave an MIC [1] of 32 µg/mL (≈ 88.3 µM).
`Cc1c(C(=O)OCc2ccccc2)[n+]([O-])c2cc(F)c(-n3cncn3)cc2[n+]1[O-]` showed an MRT last at 48 h [4] of 6.04 h, a Tmax [5] of 2 h and a Cmax [6] of 1560 ng/mL. The Activity (J774.A1 [7]) was “Active”, the Activity (J774.A1 [8]) was “inactive” and the Ratio (J774.A1 [9]) was 1.92. The Activity (Cell membrane [10]) was “Active”, the Activity (J774.A1 [11]) was “Active” and the Ratio (J774.A1 [12]) was 1.74. For the same compound, the MRT inf [13] was 7.38 h, the half-life [14] was 5.94 h and the “log(activity)” value [15] was 2.73. The MIC [1] was 0.125 µg/mL (≈ 0.316 µM), the “log(activity)” value [16] was 0.1 and the AUC(0-t) at 48 h [17] was 10100 ng·h/mL. The “log(activity)” value [18] was 2.12, the IC50 (J774.A1 [2]) was 77.7 µM and the Activity (J774.A1 [19]) was “inactive”. The Ratio (J774.A1 [20]) was 2.59, the Activity (J774.A1 [21]) was “inactive” and the Activity (J774.A1 [22]) was “Active”. For the same compound, the selectivity ratio at 72 hrs [3] was 328, the Activity [23] was “Non-Toxic” and the “log(activity)” value [24] was 0.74. The “log(activity)” value [25] was 1.56, the Ratio (J774.A1 [26]) was 0.78 and the IC50 (Vero) was 123 µM. For the same compound, the AUC(0-inf) [27] was 10600 ng·h/mL and the Activity (Cell membrane [28]) was “Active”.
In the case of `CCOC(=O)c1c(C)[n+]([O-])c2cc(N3CCCC3)c(F)cc2[n+]1[O-]`, the MIC [1] is reported as 64 µg/mL (≈ 191 µM).
`Cc1c(C(=O)OC(C)C)[n+]([O-])c2cc(F)c(-n3ccnc3)cc2[n+]1[O-]` showed an MIC [1] of 2 µg/mL (≈ 5.78 µM), an IC50 (J774.A1 [2]) of 77.7 µM and a selectivity ratio at 72 hrs [3] of 19.5. It also gave an IC50 (Vero) of 112 µM.
For `CCCC(=O)c1c(C)[n+]([O-])c2cc(N3CCNCC3)c(F)cc2[n+]1[O-]`, the MIC [1] was 16 µg/mL (≈ 45.9 µM).
For `Cc1c(C(=O)OCc2ccccc2)[n+]([O-])c2cc(F)c(-n3ccnc3)cc2[n+]1[O-]`, the “log(activity)” value [29] was 0.18, the “log(activity)” value [30] was 2.15 and the “log(activity)” value [31] was 0.04. It also gave an MIC [1] of 0.25 µg/mL (≈ 0.634 µM), an IC50 (J774.A1 [2]) of 77.7 µM and a selectivity ratio at 72 hrs [3] of 169. For the same compound, the IC50 (Vero) was 107 µM.
